Data set [1] has as its system retina. Put plainly: Biotin-HDAP2 uptake and distribution in retina. In kind it is in vivo, mice. How it is done: Biotin-HDAP2 (40 mg/kg) was administered intraperitoneally to mice (male or female) and 60 minutes later retina was collected, fixed and sectioned. […] (FIG. 7A and FIG. 7B).
Biotin-HDAP2 uptake in retina: Adult animals were injected with 50 mg/kg biotin-HDAP2 (IP; GenScript, Piscataway, NJ) reconstituted in saline and observed for 2 hours before sacrifice. Eyes were marked to record their orientation, and the animals were given an overdose of ketamine (300 mg/kg)/xylazine (60 mg/kg) (IP) before removing each eye from the orbit with forceps. Whole eyes were dropped into 4% paraformaldehyde that was constituted in either 0.1M Tris or phosphate buffers (pH 7.3) and after ten minutes, the cornea, lens and vitreous body were removed to ensure better penetration of the fixative into the retina. The eyecups were returned to the fixative for one hour. Retinas for wholemounts were dissected from the pigment epithelium by cutting along the or a serrata, gently teasing the retina away from the back of the eye and then freeing the retina by severing the optic nerve. Retinas for cryo-sectioning remained in the eyecup, were cryoprotected in 0.1M Tris or phosphate-buffered sucrose (10%, 20% and 30%) prior to embedding in OCT (Polyfreeze, Polysciences) and sectioned at a thickness of 14 μm at −25° C. using a cryostat (Leica CM3050S).
Immunohistochemistry: Fixed retinas were labeled with cell markers using conventional immunohistochemical protocols to identify cells and structures associated with biotin-HDAP2, and to identify retinal ganglion cells and starburst amacrine cells to assess cell survival following optic nerve crush. Retinas and sections were blocked and permeabilized with 4% normal donkey serum in 0.1M Tris or phosphate buffers with 0.5% Triton-X for 1 hour and then incubated overnight (for sections) or for 3 days (for wholemounts) at 4° C. in selected primary antibodies, and 2% normal donkey serum in the same buffer. […]

Data set [2] relates to MDBK cells. Put plainly: Mitochondrial membrane potential in serum-starved cells (MitoTracker Red). It counts as cell-based, bovine. As for the experimental part:
MDBK cells incubated in serum free media for 5-7 days in the presence or absence of 1 μM of biotin-HDAP2. At the end of the incubation period 100 nM MitoTracker was added to the cells and incubated for 15 minutes. Then, media was removed and cells were fixed in 4% PFA. Cells were then visualized using a fluorescent microscope (Nikon Eclipse-ci-SRS). Experiments were conducted 5 times in triplicate for each experimental condition.
To measure the effects of biotin-HDAP2 on the mitochondrial potential and cellular oxidative stress, cells were cultured in DMEM/F12 without fetal bovine serum (FSB) in the presence or absence of biotin-HDAP2 (1 μM). After 3 days, nuclei were labeled with Hoechst 33342 (10 μg/ml) and cells were incubated for 15 minutes at 37° C. with MTR (100 nM) to evaluate the strength of the mitochondrial potential or were incubated with the general oxidative stress indicator CM-H2DCFDA (5 μM, Invitrogen, Carlsbad, CA) for 15 min at 37° C. In each instance, cells were imaged immediately after staining and prior to fixation.
Unless otherwise noted, data for all tissue culture experiments were collected from three independent trials, with each experiment done in triplicate. For each experiment, 4-6 fields of cells were randomly selected and imaged using a Nikon Eclipse 50i fluorescent microscope with a 40X immersion objective (NA 0.8) and using filters specific for either green or red wavelengths as appropriate (ex488 nm/ex515-540 nm). Photooxidation of the indicator dyes were minimized by using single exposures to the fluorescence for each field imaged. Fluorescence intensity was analyzed using ImageJ (NIH), and MTR and CM-H2DCFDA fluorescence were normalized to Hoechst fluorescence to account for differences in cell number in each field. Differences among groups were compared by Student's t-test and P values less than 0.05 were considered significant. All data are expressed as means±SEM.

Non-standard residues stand in square brackets, D forms with d. Residues, ends and D or L forms follow the SMILES beside them. *: point of attachment. Biotin = O=C1N[C@H]2[C@H](CS[C@H]2CCCCC(=O)*)N1

With `N=C(N)NCCC[C@@H](NC(=O)[C@H](Cc1ccccc1)NC(=O)[C@H](Cc1ccccc1)NC(=O)[C@@H](CCCNC(=N)N)NC(=O)CCCC[C@@H]1SC[C@@H]2NC(=O)N[C@@H]21)C(N)=O` [biotin-HDAP2, Biotin-dArg-Phe-Phe-dArg-NH2] (Biotin-[dR]FF[dR]-NH2), the distribution in retina result in data set [1] (3 mg/kg, IP) is reported as “labeled all layers of the retina”; in data set [1] (40 mg/kg intraperitoneally, 60 minutes) it was “widely distributed throughout the retina”. Also, the “penetration of the retina-blood barrier” value in data set [1] (intravitreal injection and systemic administration) is listed as “can penetrate the retina-blood barrier”. Besides, in data set [2] (1 μM, serum free 5-7 days, 100 nM MitoTracker), the “mitochondria membrane potential in starved cells” value is reported as “improved mitochondria membrane potential in starved cells”. The “increase of MitoTracker Red CMXRos fluorescence intensity vs untreated controls” value in data set [2] (1 μM, serum starvation) is listed as “over 2.5 times”. In data set [2] (1 μM, serum-free 3-4 days), the “increase of mitochondrial membrane potential compared to serum-free control” value worked out at 150%. The “improvement of mitochondrial potential” value in data set [2] (FIG. 10D) is 2.5 fold.

The record behind these values is patent US20250276996A1, “CATIONICALLY-ENFRAMED HIGH DENSITY AROMATIC PEPTIDES” (Research Foundation of the City University of New York, priority 2022, published 2025).
